Results: US20100311714A1, “1H-IMIDAZO[4,5-c]QUINOLINONE COMPOUNDS” (priority 2009, published 2010)

System: PKB Ser473 phosphorylation in Rat1-myr-HA-p110 beta cells
Experiment: Reverse protein array, PKB Ser473 phosphorylation in Rat1-myr-HA-p110 beta cells
Format: cell-based
Conditions: Rattus norvegicus, 0.5 h, 30 minutes compound incubation, read-out: p-PKB/IC50_beta

`CCNc1cc(-c2ccc3ncc4c(c3c2)n(-c2ccc(N3CCC3)nc2C)c(=O)n4C)cnc1CO` [Example 23.8, 1-(6-Azetidin-1-yl-2-methyl-pyridin-3-yl)-8-(5-ethylamino-6-hydroxymethyl-pyridin-3-yl)-3-methyl-1,3-dihydro-imidazo[4,5-c]quinolin-2-one] gave an IC50 of less than 4.57 nM.
`CNc1ncc(-c2ccc3ncc4c(c3c2)n(-c2ccc(N(C)CCO)nc2C)c(=O)n4C)cn1` [Example 26.2, 1-{6-[(2-Hydroxy-ethyl)-methyl-amino]-2-methyl-pyridin-3-yl}-3-methyl-8-(2-methylamino-pyrimidin-5-yl)-1,3-dihydro-imidazo[4,5-c]quinolin-2-one] gave an IC50 of less than 4.57 nM.
With `Cc1cccnc1-n1c(=O)n(C)c2cnc3ccc(-c4ccc(CO)nc4)cc3c21` [Example 3.9, 8-(6-Hydroxymethyl-pyridin-3-yl)-3-methyl-1-(3-methyl-pyridin-2-yl)-1,3-dihydro-imidazo[4,5-c]quinolin-2-one] the IC50 was 689 nM.
In the case of `CNc1ncc(-c2ccc3ncc4c(c3c2)n(-c2ccc(N3CC(F)(F)C3)nc2C)c(=O)n4C)cn1` [Example 24.1, 1-[6-(3,3-Difluoro-azetidin-1-yl)-2-methyl-pyridin-3-yl]-3-methyl-8-(2-methylamino-pyrimidin-5-yl)-1,3-dihydro-imidazo[4,5-c]quinolin-2-one], the IC50 is reported as 12.7 nM.
In the case of `CCNc1cc(-c2ccc3ncc4c(c3c2)n(-c2ccc(N3CC(O)C3)nc2C)c(=O)n4C)cnc1CO` [Example 29.2, 8-(5-Ethylamino-6-hydroxymethyl-pyridin-3-yl)-1-[6-(3-hydroxy-azetidin-1-yl)-2-methyl-pyridin-3-yl]-3-methyl-1,3-dihydro-imidazo[4,5-c]quinolin-2-one], the IC50 is reported as 32.7 nM.
`CCOc1cc(-c2ccc3ncc4c(c3c2)n(-c2ccc(F)nc2C)c(=O)n4C)cnc1COC` [Example 7.5, 8-(5-Ethoxy-6-methoxymethyl-pyridin-3-yl)-1-(6-fluoro-2-methyl-pyridin-3-yl)-3-methyl-1,3-dihydro-imidazo[4,5-c]quinolin-2-one] gave an IC50 of 82.1 nM.
In the case of `CCOc1cc(-c2ccc3ncc4c(c3c2)n(-c2cccnc2C)c(=O)n4C)cnc1COC` [Example 2.28, 8-(5-Ethoxy-6-methoxymethyl-pyridin-3-yl)-3-methyl-1-(2-methyl-pyridin-3-yl)-1,3-dihydro-imidazo[4,5-c]quinolin-2-one], the IC50 is reported as 61 nM.
In the case of `CCOc1ccc(-c2ccc3ncc4c(c3c2)n(-c2ncccc2C)c(=O)n4C)cn1` [Example 3.6, 8-(6-Ethoxy-pyridin-3-yl)-3-methyl-1-(3-methyl-pyridin-2-yl)-1,3-dihydro-imidazo[4,5-c]quinolin-2-one], the IC50 is reported as 546 nM.
`Cc1ncccc1-n1c(=O)n(C)c2cnc3ccc(-c4ccc(CO)nc4)cc3c21` [Example 2.6, 8-(6-Hydroxymethyl-pyridin-3-yl)-3-methyl-1-(2-methyl-pyridin-3-yl)-1,3-dihydro-imidazo[4,5-c]quinolin-2-one] was tested, and the IC50 was 72.9 nM.
In the case of `CCNc1cc(-c2ccc3ncc4c(c3c2)n(-c2cccnc2C)c(=O)n4C)cnc1CO` [Example 2.31, 8-(5-Ethylamino-6-hydroxymethyl-pyridin-3-yl)-3-methyl-1-(2-methyl-pyridin-3-yl)-1,3-dihydro-imidazo[4,5-c]quinolin-2-one], the IC50 is reported as 5.7 nM.
`CNc1ccc(-c2ccc3ncc4c(c3c2)n(-c2ccc(N3CCC3)nc2C)c(=O)n4C)cn1` [Example 23.4, 1-(6-Azetidin-1-yl-2-methyl-pyridin-3-yl)-3-methyl-8-(6-methylamino-pyridin-3-yl)-1,3-dihydro-imidazo[4,5-c]quinolin-2-one] was tested, and the IC50 was 6.8 nM.
Work on `CNc1ncc(-c2ccc3ncc4c(c3c2)n(-c2ccc(N3CC(O)C3)nc2C)c(=O)n4C)cc1F` [Example 29.3, 8-(5-Fluoro-6-methylamino-pyridin-3-yl)-1-[6-(3-hydroxy-azetidin-1-yl)-2-methyl-pyridin-3-yl]-3-methyl-1,3-dihydro-imidazo[4,5-c]quinolin-2-one] yielded an IC50 of 31.9 nM.
